The results in this text go back to PMC9505732, “Chemistry and Bioactivity of the Deep-Water Antarctic Octocoral Alcyonium sp” (Marine Drugs, 2022).

Converted amounts (≈) assume the structure as drawn.

One data set deals with Leishmania donovani. The data set is described as follows: Leishmania donovani infected macrophage assay. The settings on record: read-out: IC50 against Leishmania donovani. The data set is classed as cell-based. As to the method:
(§1) The Leishmania donovani infected macrophage assay and cytotoxicity screen were conducted as previously described.

The subject of data set [1] is ESKAPE panel of bacterial pathogens. The data set is described as follows: ESKAPE panel antibacterial screen. Type of data set: cell-based.
Another data set deals with C. difficile UK6. Put plainly: microbe, parasite or virus in culture. The data set is classed as cell-based, Clostridium difficile. Particulars: Clostridioides difficile, UK6, 48 h, read-out: MIC against C. difficile. As to the method: The screening against C. difficile was performed in two steps. In step 1, overnight culture of a hyper-virulent clinical strain C. difficile UK6 was inoculated into a fresh BHIS medium at a volume ratio of 1:1000. After pre-incubation at 37 °C under an anaerobic atmosphere for 2 h, the bacterial culture was divided into a sterile 96-well plate and each well contained 192 μL of bacterial culture. Then, 8 μL of each extract was added to each well of the plate, mixed thoroughly, and incubated at 37 °C in an anaerobic chamber for 48 h. Control groups of 200 μL of BHIS medium only, 200 μL of bacterial culture only, and 192 μL of bacterial culture in 8 μL of DMSO were also included in separate columns within each plate. […] Serial dilutions of each extract (400 μg/mL, 200 μg/mL, 100 μg/mL, 50 μg/mL, 20 μg/mL, 10 μg/mL, 5 μg/mL, and 2 μg/mL) were prepared in a fresh BHIS medium. Then, 100 μL of each extract dilution was added to 100 μL of bacterial culture (pretreated as described), mixed well, and incubated at 37 °C in an anaerobic chamber for 48 h. Control groups including wells containing fresh medium only and bacterial culture only were also included as described. Activity was determined as +/− (clear or turbid (OD600) culture). The MICs of the three recommended antibiotics metronidazole, vancomycin, and fidaxomicin against C. difficile UK6 were also determined using broth microdilution methodology.

Data set [2] can be described thus: MTT cytotoxicity toward human kidney cells. Type of data set: cell-based. Particulars: human, HEK293T cells; host cell line HEK293T, MTT, 24 h incubation. As to the method:
(§2) The cytotoxicity of the metabolites to human liver cells and kidney cells was determined using an MTT based-In Vitro Toxicology Assay Kit (Sigma–Aldrich, St. Louis, MO, USA) following the manufacturing instructions. The human kidney HEK293T cells and the human liver HEPGZ cells were used for the evaluation in this study. Both cell samples were maintained and suspended in Dulbecco’s Modified Eagle Medium (DMEM with 4.5 g/L glucose, L-glutamine and sodium pyruvate, Corning, Manassas, VA, USA) containing 10% fetal bovine serum (Thermo Scientific) and 1% penicillin/streptomycin at 37 °C under 5% CO2 atmosphere. The cells were plated on a 96-well plate with approximately 5 × 10^3–1 × 10^4 cells in each well, and incubated at 37 °C overnight. After that, each of the selected extracts from the antimicrobial susceptibility test was added to the wells and incubated with the cells at a series of 2-fold diluted concentrations ranging from 128 μg/mL to 0.125 μg/mL. […] After that, the liquid in each well of the plate was removed carefully and thoroughly, then the cells in the wells were treated with 100 μL of DMSO, and incubated at 37 °C for 15 m. […] Bio Tek Instruments, Inc. Winooski VT). Cells treated with vancomycin, a common option for treating CDI in clinical settings, were also included in the MTT tests as a control. Cell survival and the IC50 were calculated according to the method used in a previous publication: Survival of cells (%) = Drug-treated group OD540/control group OD540 × 100. The IC50 value was calculated as follows: lgIC50 = Xm − I [P − (3 − Pm − Pn)/4], where Xm was the log maximum dose, I was the log (maximum dose/adjacent dose), P was the sum of the positive response rate, Pm was the maximum positive response rate, and Pn was the minimum positive response rate.

Data set [3] in a line: MTT cytotoxicity toward human liver cells. The data set is classed as cell-based. The settings on record: human, HepG2 cells; host cell line HepG2, MTT, 24 h incubation. As to the method:
as §2

Data set [4] can be described thus: Cytotoxicity screen against Leishmania host cell line. Type of data set: cell-based. Particulars: mouse, J774.A1 macrophages. As to the method:
as §1

The test system of a further data set is HEK293T cells. Put plainly: MTT cytotoxicity toward human kidney cells. The data set is classed as cell-based. The settings on record: at the same concentrations alcyopterosins were assayed. As to the method: as §2
The next data set has as its system HepG2 cells. Put plainly: MTT cytotoxicity toward human liver cells. Particulars: at the same concentrations alcyopterosins were assayed. Type of data set: cell-based. As to the method: as §2

As to `CC(=O)OCCc1c(C)cc2c(c1COC(C)=O)CC(C)(C)C2` [4,12-Bis(acetyl)alcyopterosin O, 4,12-bis(acetyl)alcyopterosin O], in the data set with Leishmania donovani, the IC50 stood at 1.2 µM.
Regarding `Cc1cc2c(c3c1[C@@H](CO[N+](=O)[O-])OC3=O)CC(C)(C)C2` [Alcyopterosin E], the “activity against the ESKAPE panel of bacterial pathogens” value (“activity against the ESKAPE panel” below) in data set [1] is “inactive”. Further, the MIC with C. difficile UK6 came to 6.9 µM (≈ 2.01 µg/mL). Further, the CC50 at 24 h in data set [2] came to 570 µM; in data set [3], 331 µM. The IC50 in the data set on Leishmania donovani was 3.1 µM; in data set [4] it was 62 µM.
For the molecule `Cc1cc2c(c3c1[C@@H](CO)OC3=O)CC(C)(C)C2` [Alcyopterosin V], in data set [1], the “activity against the ESKAPE panel” value was “inactive”. The MIC with C. difficile UK6 is 8.1 µM (≈ 2 µg/mL). Further, the CC50 at 24 h is 220 µM in data set [2] and 288 µM in data set [3]. In addition, the figures for the IC50 (with Leishmania donovani; in data set [4]) were 7 µM and 110 µM, respectively.
In the case of `CN[C@H](CC(C)C)C(=O)N[C@H]1C(=O)N[C@@H](CC(N)=O)C(=O)N[C@H]2C(=O)N[C@H]3C(=O)N[C@H](C(=O)N[C@H](C(=O)O)c4cc(O)cc(O)c4-c4cc3ccc4O)[C@H](O)c3ccc(c(Cl)c3)Oc3cc2cc(c3O[C@@H]2O[C@H](CO)[C@@H](O)[C@H](O)[C@H]2O[C@H]2C[C@](C)(N)[C@H](O)[C@H](C)O2)Oc2ccc(cc2Cl)[C@H]1O` [Vancomycin, reference compound], in the data set with C. difficile UK6, the MIC was 0.34 µM (≈ 0.493 µg/mL). Further, the “toxicity to host cells HEK293T” value with HEK293T cells is “non-toxic”. Also, the “toxicity to host cells HepG2” value with HepG2 cells was “non-toxic”.
In the case of `Cc1cc2c(c(C)c1CCO[N+](=O)[O-])CC(C)(C)C2=O` [alcyopterosin C], the IC50 in the data set with Leishmania donovani came to 13 µM.
For `Cc1cc2c(c3c1[C@@H](CCl)OC3=O)CC(C)(C)[C@@H]2O` [alcyopterosin L], the IC50 in the data set on Leishmania donovani was found to be 2.4 µM.
Consider `CC(=O)O[C@@H]1[C@H](OC(C)=O)[C@H]([C@H](C)CCCC(C)C)[C@@]2(C)C[C@@H](OC(C)=O)[C@H]3[C@@H](C[C@@H](O)[C@H]4CC=CC(=O)[C@]34C)[C@H]12` [alcyosterone], for which, in data set [1], the “activity against the ESKAPE panel” value was “inactive”. Besides, the concentration for half-maximal inhibition (IC50) with Leishmania donovani was 1.5 µM.
As to `CCCCCCCCCCCCCCCCOP(=O)([O-])OCC[N+](C)(C)C` [miltefosine, reference compound], the IC50 in the data set on Leishmania donovani worked out at 6.2 µM.
